± gives the standard deviation of the averaged measurements.
Legend:
[1] = compound: COc1cc2ncnc(Nc3ccc(F)c(Cl)c3)c2cc1NC(=O)/C=C/CN1CCCCC1; assay: surviving fraction relative to DMSO-only wells; higher = less growth inhibition; details: exposure time: 5 days
Procedure, shortened: (§1)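 Each tumour cell line was screened three times, and only lines with replicate Pearson r >0.7 and median Z' >0.3 were kept. Cells in log phase were seeded at 250–500 per well in 384-well plates, left 24 hours, then exposed continuously for five days to inhibitors at 0.5, 1, 5, 10, 50, 100, 500 and 1000 nM. Viability was read as CellTiter-Glo luminescence, with surviving fraction normalised to the median of DMSO-only wells.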

MLN-4924 = compound: NS(=O)(=O)OC[C@@H]1C[C@@H](n2ccc3c(N[C@H]4CCc5ccccc54)ncnc32)C[C@@H]1O [MLN-4924]; assay: as above; details: exposure time: 5 days
Procedure, shortened: as §1

Test System | surviving fraction ([1]; 0.5 nM) | surviving fraction ([1]; 1 nM) | surviving fraction ([1]; 5 nM) | surviving fraction ([1]; 10 nM) | surviving fraction ([1]; 50 nM) | surviving fraction ([1]; 100 nM) | surviving fraction ([1]; 500 nM) | surviving fraction ([1]; 1000 nM) | surviving fraction (MLN-4924; 0.5 nM) | surviving fraction (MLN-4924; 1 nM) | surviving fraction (MLN-4924; 5 nM) | surviving fraction (MLN-4924; 10 nM) | surviving fraction (MLN-4924; 50 nM) | surviving fraction (MLN-4924; 100 nM) | surviving fraction (MLN-4924; 500 nM) | surviving fraction (MLN-4924; 1000 nM)
22RV1 PROSTATE | 1 ± 0.17 | 1.04 ± 0.099 | 0.977 ± 0.059 | 1 ± 0.087 | 1.03 ± 0.05 | 0.97 ± 0.063 | 1.02 ± 0.061 | 0.9 ± 0.045 | 1.07 ± 0.05 | 0.967 ± 0.15 | 1.03 ± 0.12 | 0.81 ± 0.1 | 0.653 ± 0.048 | 0.47 ± 0.055 | 0.283 ± 0.058 | 0.26 ± 0.13
93VU HEADNECK | 0.834 ± 0.065 | 0.8653 ± 0.005 | 0.651 ± 0.02 | 0.541 ± 0.12 | 0.465 ± 0.016 | 0.456 ± 0.034 | 0.353 ± 0.036 | 0.267 ± 0.025 | 1.01 ± 0.083 | 1.11 ± 0.068 | 1.09 ± 0.047 | 1.1 ± 0.051 | 0.828 ± 0.079 | 0.533 ± 0.034 | 0.166 ± 0.015 | 0.133 ± 0.0059
143B BONE | 1.03 ± 0.027 | 1.006 ± 0.005 | 1.01 ± 0.067 | 1.01 ± 0.033 | 1.02 ± 0.018 | 1.01 ± 0.03 | 0.957 ± 0.016 | 0.831 ± 0.04 | 1.03 ± 0.023 | 1.01 ± 0.034 | 1.04 ± 0.033 | 1.018 ± 0.0099 | 0.961 ± 0.042 | 0.699 ± 0.028 | 0.062 ± 0.0042 | 0.033 ± 0.0028
A549 LUNG | 1.03 ± 0.089 | 0.985 ± 0.053 | 0.986 ± 0.08 | 0.962 ± 0.034 | 1.04 ± 0.066 | 1.02 ± 0.024 | 1 ± 0.044 | 1.02 ± 0.042 | 1.061 ± 0.0093 | 1.05 ± 0.034 | 1.04 ± 0.023 | 1 ± 0.034 | 1.11 ± 0.041 | 1.1 ± 0.024 | 0.781 ± 0.011 | 0.417 ± 0.044
ASKA SYNOVIAL | 1.11 ± 0.094 | 1.23 ± 0.051 | 1.15 ± 0.038 | 1.24 ± 0.14 | 1.3 ± 0.068 | 1.29 ± 0.04 | 0.959 ± 0.021 | 1.12 ± 0.019 | 1.11 ± 0.025 | 1.01 ± 0.02 | 1.08 ± 0.14 | 1.151 ± 0.011 | 0.946 ± 0.18 | 0.486 ± 0.08 | 0.33 ± 0.04 | 0.348 ± 0.019
BT20 BREAST | 1.08 ± 0.071 | 1 ± 0.12 | 0.895 ± 0.015 | 0.934 ± 0.13 | 1.05 ± 0.028 | 0.996 ± 0.13 | 1.13 ± 0.045 | 0.809 ± 0.16 | 1.13 ± 0.042 | 1.168 ± 0.0072 | 1.13 ± 0.073 | 1.16 ± 0.1 | 1.2 ± 0.084 | 1.23 ± 0.18 | 0.989 ± 0.098 | 0.645 ± 0.044
BT549 BREAST | 0.991 ± 0.049 | 1.1 ± 0.15 | 1.02 ± 0.17 | 1.06 ± 0.13 | 1 ± 0.037 | 0.927 ± 0.14 | 0.727 ± 0.058 | 0.473 ± 0.08 | 1.05 ± 0.043 | 1 ± 0.19 | 1.02 ± 0.064 | 0.957 ± 0.052 | 0.732 ± 0.14 | 0.575 ± 0.062 | 0.194 ± 0.067 | 0.148 ± 0.046
C33A CERVIX | 0.793 ± 0.044 | 0.93 ± 0.15 | 0.899 ± 0.017 | 0.802 ± 0.085 | 0.517 ± 0.051 | 0.428 ± 0.022 | 0.358 ± 0.019 | 0.296 ± 0.02 | 0.905 ± 0.042 | 0.916 ± 0.093 | 0.929 ± 0.13 | 0.952 ± 0.11 | 0.542 ± 0.032 | 0.358 ± 0.027 | 0.132 ± 0.026 | 0.0803 ± 0.028
CADOES1 SOFT TISSUE | 0.985 ± 0.058 | 0.938 ± 0.14 | 1.03 ± 0.16 | 0.873 ± 0.046 | 0.884 ± 0.07 | 0.896 ± 0.047 | 0.891 ± 0.018 | 0.7 ± 0.031 | 0.993 ± 0.094 | 0.97 ± 0.047 | 0.913 ± 0.052 | 0.787 ± 0.057 | 0.879 ± 0.057 | 0.812 ± 0.082 | 0.0993 ± 0.014 | 0.053 ± 0.007
CAL51 BREAST | 0.985 ± 0.05 | 1.03 ± 0.076 | 1 ± 0.086 | 0.968 ± 0.031 | 1.03 ± 0.08 | 1.02 ± 0.1 | 0.9793 ± 0.0063 | 0.848 ± 0.027 | 1.01 ± 0.035 | 1.01 ± 0.045 | 1.06 ± 0.025 | 1.01 ± 0.051 | 0.922 ± 0.067 | 0.702 ± 0.085 | 0.2 ± 0.022 | 0.128 ± 0.012
CAL72 BONE | 1.08 ± 0.014 | 1.06 ± 0.042 | 1.08 ± 0.062 | 1.03 ± 0.024 | 1.06 ± 0.055 | 1.07 ± 0.034 | 0.943 ± 0.019 | 0.818 ± 0.017 | 1.02 ± 0.11 | 0.996 ± 0.12 | 1.02 ± 0.1 | 1.04 ± 0.068 | 1.1 ± 0.031 | 0.933 ± 0.085 | 0.299 ± 0.063 | 0.154 ± 0.042
CAL120 BREAST | 0.98 ± 0.016 | 0.952 ± 0.014 | 0.965 ± 0.021 | 0.973 ± 0.038 | 0.959 ± 0.022 | 0.961 ± 0.04 | 0.837 ± 0.025 | 0.543 ± 0.019 | 0.961 ± 0.064 | 0.963 ± 0.028 | 0.952 ± 0.06 | 0.889 ± 0.068 | 0.667 ± 0.057 | 0.482 ± 0.036 | 0.14 ± 0.0021 | 0.121 ± 0.0033
CASKI CERVIX | 0.801 ± 0.054 | 0.762 ± 0.015 | 0.468 ± 0.0036 | 0.336 ± 0.024 | 0.285 ± 0.025 | 0.2623 ± 0.0023 | 0.0627 ± 0.013 | 0.024 ± 0.002 | 0.955 ± 0.033 | 0.961 ± 0.028 | 1.04 ± 0.084 | 1.03 ± 0.082 | 0.507 ± 0.017 | 0.301 ± 0.016 | 0.168 ± 0.013 | 0.153 ± 0.0032
CHLA90 AUTONOMIC GANGLIA | 1 ± 0.048 | 0.982 ± 0.085 | 0.853 ± 0.049 | 0.834 ± 0.016 | 0.818 ± 0.023 | 0.769 ± 0.048 | 0.781 ± 0.04 | 0.596 ± 0.022 | 1.006 ± 0.0078 | 0.969 ± 0.05 | 0.984 ± 0.062 | 1.03 ± 0.019 | 1.2 ± 0.065 | 0.993 ± 0.028 | 0.697 ± 0.13 | 0.525 ± 0.041
CME SYNOVIAL | 1.2 ± 0.09 | 1.4 ± 0.17 | 1.29 ± 0.12 | 1.39 ± 0.15 | 1.42 ± 0.18 | 1.37 ± 0.11 | 1.26 ± 0.098 | 1.27 ± 0.12 | 1.19 ± 0.11 | 1.25 ± 0.15 | 1.32 ± 0.19 | 1.27 ± 0.07 | 0.692 ± 0.1 | 0.271 ± 0.026 | 0.273 ± 0.019 | 0.304 ± 0.023
COLO320DM LARGE INTESTINE | 1.04 ± 0.011 | 1.15 ± 0.067 | 1.07 ± 0.015 | 1.07 ± 0.068 | 1.12 ± 0.076 | 1.07 ± 0.055 | 0.685 ± 0.03 | 0.377 ± 0.025 | 1.1 ± 0.026 | 1.21 ± 0.045 | 1.14 ± 0.12 | 1.15 ± 0.1 | 1.06 ± 0.043 | 0.996 ± 0.03 | 0.803 ± 0.11 | 0.693 ± 0.03
DU4475 BREAST | 0.798 ± 0.057 | 0.876 ± 0.044 | 0.901 ± 0.12 | 0.987 ± 0.21 | 0.908 ± 0.14 | 1.09 ± 0.14 | 1.14 ± 0.19 | 0.985 ± 0.054 | 0.976 ± 0.098 | 1.02 ± 0.028 | 0.894 ± 0.049 | 0.683 ± 0.11 | 0.033 ± 0.001 | 0.0267 ± 0.0042 | 0.0323 ± 0.0011 | 0.0333 ± 0.0011
H23 LUNG | 0.91 ± 0.056 | 0.744 ± 0.035 | 0.468 ± 0.015 | 0.414 ± 0.026 | 0.381 ± 0.013 | 0.38 ± 0.018 | 0.332 ± 0.023 | 0.292 ± 0.023 | 0.992 ± 0.05 | 1.01 ± 0.053 | 1.07 ± 0.044 | 1.09 ± 0.049 | 1.18 ± 0.083 | 0.886 ± 0.073 | 0.14 ± 0.01 | 0.082 ± 0.004
HCC78 LUNG | 0.902 ± 0.2 | 0.733 ± 0.13 | 0.87 ± 0.051 | 0.827 ± 0.21 | 0.749 ± 0.12 | 0.857 ± 0.086 | 0.595 ± 0.23 | 0.447 ± 0.02 | 0.845 ± 0.11 | 0.588 ± 0.064 | 0.722 ± 0.17 | 0.808 ± 0.15 | 0.487 ± 0.067 | 0.27 ± 0.1 | 0.0393 ± 0.011 | 0.0343 ± 0.0078
HCC202 BREAST | 1.1 ± 0.1 | 1.06 ± 0.15 | 0.723 ± 0.13 | 0.757 ± 0.14 | 0.373 ± 0.041 | 0.297 ± 0.067 | 0.131 ± 0.026 | 0.0933 ± 0.023 | 1.14 ± 0.32 | 1.07 ± 0.26 | 1.24 ± 0.12 | 1.131 ± 0.0092 | 0.731 ± 0.22 | 0.557 ± 0.22 | 0.299 ± 0.066 | 0.265 ± 0.015

Source: the supplement of paper PMC6045584
